Test results as given in PMC8162404, “Proteomimetic surface fragments distinguish targets by function” (Chemical Science, 2020).

How the values were obtained:
[1] = target: T1, CaM (Bos taurus, UniProt P62157); test: Pull-down assay with immobilized protein and LSM libraries; format: binding, bovine; settings: H14 library; 1:2 stoichiometry assumed; read-out: Surface mapping KD (apparent)
T1 construct: made in house; host or cells: E. coli BL21 (DE3)
Outline: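 His-tagged protein immobilized on Co-NTA resin, equilibrated 30 min at room temperature with LSM sublibraries (64 members, […]), equimolar protein to total probe. CaM buffer: 20 mM HEPES pH 7.4, 150 mM NaCl, 5 mM CaCl2. Bound fractions from HPLC-MS loss of unbound probe versus protein-free resin control; Kd derived.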

[2] = target: T2, Gal-1 (Homo sapiens, UniProt P09382); test: as above; format: binding; settings: H14 library; 1:1 binding assumed; read-out: Surface mapping KD (apparent)
T2 construct: made in house; host or cells: E. coli BL21(DE3)
T2 sequence (P09382 whole entry): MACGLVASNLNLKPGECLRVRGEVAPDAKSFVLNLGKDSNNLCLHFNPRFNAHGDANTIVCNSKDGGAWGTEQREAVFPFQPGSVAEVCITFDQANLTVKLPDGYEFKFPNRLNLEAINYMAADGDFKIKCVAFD
Outline: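 His-tagged protein immobilized on Co-NTA resin (64 µM) in 20 mM HEPES pH 7.4, 150 mM NaCl, equilibrated 30 min at room temperature with foldamer LSM sublibraries at equimolar total concentration. Unbound fractions quantified by HPLC-MS versus protein-free resin control; apparent KD assumes 1:1 binding.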

[3] = target: T3, S100A4 (Homo sapiens, UniProt P26447); test: as above; format: binding; settings: H14 library; 1:1 binding assumed; read-out: Surface mapping KD (apparent)
T3 construct: made in house; host or cells: Escherichia coli BL21(DE3)
T3 sequence (P26447 whole entry): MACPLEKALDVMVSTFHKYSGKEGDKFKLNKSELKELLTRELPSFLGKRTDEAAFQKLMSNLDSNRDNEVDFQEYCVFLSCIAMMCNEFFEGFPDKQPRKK
Outline: (§1)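 Buffers were HEPES pH 7.4 with 150 mM NaCl, plus 1 mM TCEP and 1 mM CaCl2 (50 mM HEPES) for S100A4 and S100B, 1 mM TCEP for Gal-1, and no additive for RecQ-WH. Immobilized protein at 64 µM was equilibrated 30 min with the LSM sublibrary, and unbound probes were measured by LC-MS.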

[4] = target: T4, S100B (Homo sapiens, UniProt P04271); test: as above; format: binding; settings: H14 library; 1:1 binding assumed; read-out: Surface mapping KD (apparent)
T4 construct: made in house; host or cells: Escherichia coli BL21(DE3)
T4 sequence (P04271 1-92): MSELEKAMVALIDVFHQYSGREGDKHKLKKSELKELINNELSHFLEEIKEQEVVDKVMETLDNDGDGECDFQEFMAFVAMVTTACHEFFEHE
Outline: as §1

[5] = target: T4, S100B; test: Competition pull-down with native ligand RSK1 (689–735); format: binding; settings: H14 library; competitor peptide 200 µM; read-out: Surface mapping KD (apparent), competition
[6] = target: T1, CaM; test: Competition pull-down with native ligand TRPV1-Ct15; format: binding, bovine; settings: H14 library; competitor peptide 200 µM; read-out: Surface mapping KD (apparent), competition
[7] = target: T2, Gal-1; test: Competition pull-down with lactose; format: binding; settings: H14 library; lactose 10 mM; read-out: Surface mapping KD (apparent), competition
Outline: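 His6-tagged proteins immobilized on Co-NTA resin at 64 µM final with 64-member LSM foldamer sublibraries (1 M each, as printed) in pH 7.4 HEPES/NaCl buffers (Ca2+/TCEP per target), 30 min RT; competitor peptides 200 µM final, lactose 10 mM for Gal-1. Bound fractions from LC-MS loss vs protein-free resin; KD assuming 1:1 binding.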

Compound | Kd [1] | Kd [2] | Kd [3] | Kd [4] | Kd [5] | Kd [6] | Kd [7]
CC(C)[C@@H](CC(=O)N[C@H]1CCCC[C@@H]1C(=O)N[C@H]1CCCC[C@@H]1C(=O)N[C@@H](CCC(N)=O)CC(=O)N[C@H]1CCCC[C@@H]1C(N)=O)NC(=O)[C@H]1CCCC[C@@H]1N [H14 VQ] | – | 161 µM | – | – | 339 µM | – | –
CC[C@H](C)[C@@H](CC(=O)N[C@H]1CCCC[C@@H]1C(=O)N[C@H]1CCCC[C@@H]1C(=O)N[C@@H](CC(N)=O)CC(=O)N[C@H]1CCCC[C@@H]1C(N)=O)NC(=O)[C@H]1CCCC[C@@H]1N [H14 IN] | 281 µM | – | 321 µM | – | 325 µM | – | –
CC[C@H](C)[C@@H](CC(=O)N[C@H]1CCCC[C@@H]1C(=O)N[C@H]1CCCC[C@@H]1C(=O)N[C@@H](CCC(N)=O)CC(=O)N[C@H]1CCCC[C@@H]1C(N)=O)NC(=O)[C@H]1CCCC[C@@H]1N [H14 IQ] | 321 µM | – | 319 µM | 497 µM | 387 µM | – | –
CSCC[C@@H](CC(=O)N[C@H]1CCCC[C@@H]1C(=O)N[C@H]1CCCC[C@@H]1C(=O)N[C@H](CC(=O)N[C@H]1CCCC[C@@H]1C(N)=O)[C@@H](C)O)NC(=O)[C@H]1CCCC[C@@H]1N [H14 MT] | 63 µM | 424 µM | 148 µM | 476 µM | 337 µM | – | –
CSCC[C@@H](CC(=O)N[C@H]1CCCC[C@@H]1C(=O)N[C@H]1CCCC[C@@H]1C(=O)N[C@@H](C)CC(=O)N[C@H]1CCCC[C@@H]1C(N)=O)NC(=O)[C@H]1CCCC[C@@H]1N [H14 MA] | 16 µM | 385 µM | 72 µM | 380 µM | 382 µM | – | –
CC[C@H](C)[C@@H](CC(=O)N[C@H]1CCCC[C@@H]1C(=O)N[C@H]1CCCC[C@@H]1C(=O)N[C@@H](CO)CC(=O)N[C@H]1CCCC[C@@H]1C(N)=O)NC(=O)[C@H]1CCCC[C@@H]1N [H14 IS] | 142 µM | 266 µM | 79 µM | 382 µM | 456 µM | – | –
N=C(N)NCCC[C@@H](CC(=O)N[C@H]1CCCC[C@@H]1C(N)=O)NC(=O)[C@H]1CCCC[C@@H]1NC(=O)[C@H]1CCCC[C@@H]1NC(=O)C[C@H](CO)NC(=O)[C@H]1CCCC[C@@H]1N [H14 SR] | 75 µM | 156 µM | 188 µM | 76 µM | – | 174 µM | 349 µM
CC(C)[C@@H](CC(=O)N[C@H]1CCCC[C@@H]1C(=O)N[C@H]1CCCC[C@@H]1C(=O)N[C@@H](CCCCN)CC(=O)N[C@H]1CCCC[C@@H]1C(N)=O)NC(=O)[C@H]1CCCC[C@@H]1N [H14 VK] | 67 µM | 296 µM | – | 138 µM | 390 µM | – | –
CC(C)[C@@H](CC(=O)N[C@H]1CCCC[C@@H]1C(=O)N[C@H]1CCCC[C@@H]1C(=O)N[C@H](CC(=O)N[C@H]1CCCC[C@@H]1C(N)=O)[C@@H](C)O)NC(=O)[C@H]1CCCC[C@@H]1N [H14 VT] | 142 µM | 347 µM | 79 µM | 382 µM | 484 µM | – | –
NC(=O)[C@H]1CCCC[C@@H]1NC(=O)C[C@H](CO)NC(=O)[C@H]1CCCC[C@@H]1NC(=O)[C@H]1CCCC[C@@H]1NC(=O)C[C@H](Cc1ccc(O)cc1)NC(=O)[C@H]1CCCC[C@@H]1N [H14 YS] | 67 µM | 336 µM | 346 µM | – | 399 µM | – | –
CC(C)C[C@@H](CC(=O)N[C@H]1CCCC[C@@H]1C(N)=O)NC(=O)[C@H]1CCCC[C@@H]1NC(=O)[C@H]1CCCC[C@@H]1NC(=O)C[C@H](CO)NC(=O)[C@H]1CCCC[C@@H]1N [H14 SL] | 64 µM | 251 µM | 19 µM | 380 µM | – | 436 µM | 325 µM
CC(C)C[C@@H](CC(=O)N[C@H]1CCCC[C@@H]1C(=O)N[C@H]1CCCC[C@@H]1C(=O)N[C@@H](CO)CC(=O)N[C@H]1CCCC[C@@H]1C(N)=O)NC(=O)[C@H]1CCCC[C@@H]1N [H14 LS] | 99 µM | 498 µM | 195 µM | 379 µM | 371 µM | – | –
NC(=O)CC[C@@H](CC(=O)N[C@H]1CCCC[C@@H]1C(N)=O)NC(=O)[C@H]1CCCC[C@@H]1NC(=O)[C@H]1CCCC[C@@H]1NC(=O)C[C@H](Cc1ccccc1)NC(=O)[C@H]1CCCC[C@@H]1N [H14 FQ] | 49 µM | – | 377 µM | 433 µM | 494 µM | – | –
CC(C)[C@@H](CC(=O)N[C@H]1CCCC[C@@H]1C(=O)N[C@H]1CCCC[C@@H]1C(=O)N[C@@H](CO)CC(=O)N[C@H]1CCCC[C@@H]1C(N)=O)NC(=O)[C@H]1CCCC[C@@H]1N [H14 VS] | 264 µM | 190 µM | 263 µM | – | 460 µM | – | –
CC(C)[C@@H](CC(=O)N[C@H]1CCCC[C@@H]1C(=O)N[C@H]1CCCC[C@@H]1C(=O)N[C@@H](CCC(=O)O)CC(=O)N[C@H]1CCCC[C@@H]1C(N)=O)NC(=O)[C@H]1CCCC[C@@H]1N [H14 VE] | – | 313 µM | – | – | 369 µM | – | –
NCCCC[C@@H](CC(=O)N[C@H]1CCCC[C@@H]1C(N)=O)NC(=O)[C@H]1CCCC[C@@H]1NC(=O)[C@H]1CCCC[C@@H]1NC(=O)C[C@H](CCC(N)=O)NC(=O)[C@H]1CCCC[C@@H]1N [H14 QK] | 96 µM | 158 µM | 382 µM | 81 µM | – | 208 µM | 146 µM

Now from value to molecule, other results behind:

Kd [1] | Kd [2] | Kd [3] | Kd [4] | Kd [5] | Compound | Kd [6] | Kd [7]
14 µM | 116 µM | 138 µM | 82 µM | 167 µM | CC(C)C[C@@H](CC(=O)N[C@H]1CCCC[C@@H]1C(=O)N[C@H]1CCCC[C@@H]1C(=O)N[C@@H](CCCNC(=N)N)CC(=O)N[C@H]1CCCC[C@@H]1C(N)=O)NC(=O)[C@H]1CCCC[C@@H]1N [H14 LR] | – | –
– | 302 µM | – | – | 271 µM | CC(C)[C@@H](CC(=O)N[C@H]1CCCC[C@@H]1C(=O)N[C@H]1CCCC[C@@H]1C(=O)N[C@@H](CC(N)=O)CC(=O)N[C@H]1CCCC[C@@H]1C(N)=O)NC(=O)[C@H]1CCCC[C@@H]1N [H14 VN] | – | –
16 µM | 247 µM | 7 µM | 108 µM | 296 µM | CC[C@H](C)[C@@H](CC(=O)N[C@H]1CCCC[C@@H]1C(=O)N[C@H]1CCCC[C@@H]1C(=O)N[C@@H](C)CC(=O)N[C@H]1CCCC[C@@H]1C(N)=O)NC(=O)[C@H]1CCCC[C@@H]1N [H14 IA] | – | –
26 µM | – | 5 µM | 93 µM | 229 µM | CSCC[C@@H](CC(=O)N[C@H]1CCCC[C@@H]1C(N)=O)NC(=O)[C@H]1CCCC[C@@H]1NC(=O)[C@H]1CCCC[C@@H]1NC(=O)C[C@@H](NC(=O)[C@H]1CCCC[C@@H]1N)C(C)C [H14 VM] | – | –
27 µM | – | 312 µM | 82 µM | 316 µM | CC(C)C[C@@H](CC(=O)N[C@H]1CCCC[C@@H]1C(=O)N[C@H]1CCCC[C@@H]1C(=O)N[C@@H](CCCCN)CC(=O)N[C@H]1CCCC[C@@H]1C(N)=O)NC(=O)[C@H]1CCCC[C@@H]1N [H14 LK] | – | –
119 µM | 353 µM | 221 µM | 192 µM | 304 µM | C[C@@H](CC(=O)N[C@H]1CCCC[C@@H]1C(=O)N[C@H]1CCCC[C@@H]1C(=O)N[C@H](CC(=O)N[C@H]1CCCC[C@@H]1C(N)=O)Cc1ccc(O)cc1)NC(=O)[C@H]1CCCC[C@@H]1N [H14 AY] | – | –
31 µM | – | 307 µM | 84 µM | 216 µM | CC[C@H](C)[C@@H](CC(=O)N[C@H]1CCCC[C@@H]1C(=O)N[C@H]1CCCC[C@@H]1C(=O)N[C@@H](CCCCN)CC(=O)N[C@H]1CCCC[C@@H]1C(N)=O)NC(=O)[C@H]1CCCC[C@@H]1N [H14 IK] | – | –
20 µM | – | 103 µM | 37 µM | 174 µM | CC[C@H](C)[C@@H](CC(=O)N[C@H]1CCCC[C@@H]1C(=O)N[C@H]1CCCC[C@@H]1C(=O)N[C@@H](CCCNC(=N)N)CC(=O)N[C@H]1CCCC[C@@H]1C(N)=O)NC(=O)[C@H]1CCCC[C@@H]1N [H14 IR] | – | –
294 µM | 314 µM | 433 µM | 409 µM | 254 µM | CC(C)C[C@@H](CC(=O)N[C@H]1CCCC[C@@H]1C(=O)N[C@H]1CCCC[C@@H]1C(=O)N[C@@H](CC(N)=O)CC(=O)N[C@H]1CCCC[C@@H]1C(N)=O)NC(=O)[C@H]1CCCC[C@@H]1N [H14 LN] | – | –
– | – | – | – | 141 µM | CSCC[C@@H](CC(=O)N[C@H]1CCCC[C@@H]1C(N)=O)NC(=O)[C@H]1CCCC[C@@H]1NC(=O)[C@H]1CCCC[C@@H]1NC(=O)C[C@H](CCC(=O)O)NC(=O)[C@H]1CCCC[C@@H]1N [H14 EM] | – | –
